Reference: patent publication US20160368879A1, “PHOTOACID GENERATOR, AND RESIN COMPOSITION FOR PHOTOLITHOGRAPHY” (SAN-APRO LTD., priority 2013, published 2016)

What was measured:
Assay type in all cases: physicochemical
[1] = Molar extinction coefficient of i-line (365 nm), UV-visible absorbance in acetonitrile; conditions: 0.25 mmol/L in acetonitrile, cell length 1 cm
Protocol: The synthesized photoacid generator was diluted to 0.25 mmol/L with acetonitrile, and using an ultraviolet-visible spectrophotometer (UV-2550 available from SHIMADZU CORPORATION), the absorbance in a range of 200 nm to 500 nm was measured with a cell having an optical path length (a cell length) of 1 cm. The molar extinction coefficient of i-line (365 nm) (ε365) was calculated from the following equation.
[In the equation, […] represents the absorbance at 365 nm.]

[2] = Solvent solubility (butyl acetate, toluene or PGMEA); conditions: for Solvent solubility PGMEA / Solvent solubility Butyl acetate / Solvent solubility Toluene: 25° C.
Protocol: In a test tube, 0.1 g of the synthesized photoacid generator was placed, and an organic solvent (butyl acetate, toluene or PGMEA) was added thereto in 0.2 g portions under a condition where the temperature was adjusted to 25° C. until the photoacid generator was completely dissolved. In this connection, in the case where the photoacid generator was not completely dissolved even when 20 g of the solvent was added, the photoacid generator was evaluated as one that was not dissolved.

[3] = Thermal decomposition temperature (TG/DTA, 2% weight reduction); conditions: point of 2% weight reduction; 10° C./minute from 30° C. to 500° C.; nitrogen atmosphere
Protocol: The synthesized photoacid generator was measured for the change in weight under a temperature increasing condition of 10° C./minute from 30° C. to 500° C. under a nitrogen atmosphere using a thermal gravimetric/differential thermal analyzer (TG/DTA 6200, available from Seiko Instruments Inc.), and a point where the weight was reduced by 2% was defined as the thermal decomposition temperature.

Molar extinction coefficient [1]	Solvent solubility PGMEA [2]	Solvent solubility Butyl acetate [2]	Solvent solubility Toluene [2]	Thermal decomposition temperature [3]	solubility to a solvent (in words) ([2]; summary of Tables 4 to 6)	Compound
6000 L/mol/cm	6 wt %	5 wt %	10 wt %	220 °C		O=C1c2cccc3c(Cl)ccc(c23)C(=O)N1OS(=O)(=O)C(F)(F)F [Example A-19, 4-chloro-1,8-naphthalimide trifluoromethanesulfonate]
1500 L/mol/cm	18 wt %	25 wt %	23 wt %	230 °C		CCCCC(CC)C(=O)Oc1cc2c3c(cccc3c1)C(=O)N(OS(=O)(=O)c1c(F)c(F)c(F)c(F)c1F)C2=O (stereo not drawn) [Example A-29, 3-(2-ethylhexanoyloxy)-1,8-naphthalimide pentafluorobenzenesulfonate]
14000 L/mol/cm	3 wt %	3.5 wt %	6 wt %	240 °C		CCCOc1ccc2c3c(cccc13)C(=O)N(OS(=O)(=O)c1c(F)c(F)c(F)c(F)c1F)C2=O [Example A-22, 4-n-propoxy-1,8-naphthalimide pentafluorobenzenesulfonate]
20000 L/mol/cm	4 wt %	5.5 wt %	5.5 wt %	242 °C		O=C1c2cccc3c(Sc4ccccc4)ccc(c23)C(=O)N1OS(=O)(=O)c1c(F)c(F)c(F)c(F)c1F [Example A-27, 4-phenylthio-1,8-naphthalimide pentafluorobenzenesulfonate]
3000 L/mol/cm	3.2 wt %	3.5 wt %	5.5 wt %	242 °C		O=C(Cc1ccccc1)c1ccc2c3c(cccc13)C(=O)N(OS(=O)(=O)c1c(F)c(F)c(F)c(F)c1F)C2=O [Example A-24, 4-phenylacetyl-1,8-naphthalimide pentafluorobenzenesulfonate]
16000 L/mol/cm	2.8 wt %	3.5 wt %	3.3 wt %	243 °C		CC1(C)C2CCC1(CS(=O)(=O)ON1C(=O)c3cccc4c(Oc5cccc(C(F)(F)F)c5)ccc(c34)C1=O)C(=O)C2 (stereo not drawn) [Example A-46, 4-(3-trifluoromethylphenoxy)-1,8-naphthalimide-(+)-10-camphorsulfonate]
40 L/mol/cm	13 wt %	14 wt %	11 wt %	239 °C		O=C1c2cccc3c(C(F)(F)C(F)(F)C(F)(F)C(F)(F)F)ccc(c23)C(=O)N1OS(=O)(=O)c1c(F)c(F)c(F)c(F)c1F [Example A-36, 4-(nonafluorobutyl)-1,8-naphthalimide pentafluorobenzenesulfonate]
40 L/mol/cm	22 wt %	25 wt %	28 wt %	239 °C		O=C1c2cccc3c(C(F)(F)C(F)(F)C(F)(F)C(F)(F)F)ccc(c23)C(=O)N1OS(=O)(=O)C(F)(F)F [Example A-16, 4-(nonafluorobutyl)-1,8-naphthalimide trifluoromethanesulfonate]
330 L/mol/cm	2.4 wt %	2 wt %	4 wt %	225 °C	insufficient	O=C1c2cccc3cccc(c23)C(=O)N1OS(=O)(=O)C(F)(F)F [A′-1, 1,8-naphthalimide trifluoromethanesulfonate, reference compound]
1500 L/mol/cm	8 wt %	11 wt %	9 wt %	232 °C		CCCCC(CC)C(=O)Oc1cc2c3c(cccc3c1)C(=O)N(OS(=O)(=O)CC13CCC(CC1=O)C3(C)C)C2=O (stereo not drawn) [Example A-49, 3-(2-ethylhexanoyloxy)-1,8-naphthalimide-(+)-10-camphorsulfonate]
20000 L/mol/cm	5 wt %	7 wt %	7 wt %	240 °C		O=C1c2cccc3c(Sc4ccccc4)ccc(c23)C(=O)N1OS(=O)(=O)C(F)(F)F [Example A-7, 4-phenylthio-1,8-naphthalimide trifluoromethanesulfonate]
3000 L/mol/cm	4 wt %	4.5 wt %	7 wt %	240 °C		O=C(Cc1ccccc1)c1ccc2c3c(cccc13)C(=O)N(OS(=O)(=O)C(F)(F)F)C2=O [Example A-4, 4-phenylacetyl-1,8-naphthalimide trifluoromethanesulfonate]
6000 L/mol/cm	1.7 wt %	2 wt %	2.1 wt %	253 °C		CC1(C)C2CC[C@@]1(CS(=O)(=O)ON1C(=O)c3cc(C45CC6CC(CC(C6)C4)C5)cc4cc(C56CC7CC(CC(C7)C5)C6)cc(c34)C1=O)C(=O)C2 [Example A-55, 3,6-diadamantyl-1,8-naphthalimide-(+)-10-camphorsulfonate]
20000 L/mol/cm	1.3 wt %	1.8 wt %	1.7 wt %	244 °C		CC1(C)C2CC[C@@]1(CS(=O)(=O)ON1C(=O)c3cccc4c(Sc5ccccc5)ccc(c34)C1=O)C(=O)C2 [Example A-47, 4-phenylthio-1,8-naphthalimide-(+)-10-camphorsulfonate]
3000 L/mol/cm	1.8 wt %	1.4 wt %	1.8 wt %	233 °C		CC1(C)C2CCC1(CS(=O)(=O)ON1C(=O)c3cccc4c(C(=O)Cc5ccccc5)ccc(c34)C1=O)C(=O)C2 (stereo not drawn) [Example A-44, 4-phenylacetyl-1,8-naphthalimide-(+)-10-camphorsulfonate]
16300 L/mol/cm	1.8 wt %	1.7 wt %	2 wt %	239 °C		CC(C)Oc1ccc2c3c(cccc13)C(=O)N(OS(=O)(=O)CC13CCC(CC1=O)C3(C)C)C2=O (stereo not drawn) [Example A-41, 4-isopropoxy-1,8-naphthalimide-(+)-10-camphorsulfonate]
